Measured values: patent publication US9408852B2, “Method of lowering serum uric acid levels with (S)-tofisopam” (PHARMOS CORPORATION, priority 2011, dated 2016)

Test system: serum uric acid
Test: Serum uric acid in healthy men and postmenopausal women, single-dose and multiple-dose phases (Example 3)
Type: in vivo, human
Source text: In another study in healthy men and postmenopausal women, the trial period included a single-dose phase (Day 1) and a multiple-dose phase (Days 2-6). […] With multiple-dose oral administration (twice a day (BID) or three times a day (TID) on days 2-6), this decrease was more pronounced.

Structure (SMILES): CC[C@@H]1C(C)=NN=C(c2ccc(OC)c(OC)c2)c2cc(OC)c(OC)cc21 [(S)-tofisopam]
- Change from Baseline serum uric acid (50 mg TID (single dose Day 1), Postmenopausal women, Day 2 AM): −27%
- Change from Baseline serum uric acid (50 mg TID (single dose Day 1), Postmenopausal women, Day 4 AM): −58%
- Change from Baseline serum uric acid (50 mg TID (single dose Day 1), Postmenopausal women, Day 7 AM): −65%
- Change from Baseline serum uric acid (50 mg TID (single dose Day 1), Young men, Day 2 AM): −19%
- Change from Baseline serum uric acid (50 mg TID (single dose Day 1), Young men, Day 4 AM): −63%
- Change from Baseline serum uric acid (50 mg TID (single dose Day 1), Young men, Day 7 AM): −59%
- Change from Baseline serum uric acid (150 mg BID (single dose Day 1), Postmenopausal women, Day 2 AM): −48%
- Change from Baseline serum uric acid (150 mg BID (single dose Day 1), Postmenopausal women, Day 4 AM): −76%
- Change from Baseline serum uric acid (150 mg BID (single dose Day 1), Postmenopausal women, Day 7 AM): −71%
- Change from Baseline serum uric acid (150 mg BID (single dose Day 1), Young men, Day 2 AM): −31%
- Change from Baseline serum uric acid (150 mg BID (single dose Day 1), Young men, Day 4 AM): −72%
- Change from Baseline serum uric acid (150 mg BID (single dose Day 1), Young men, Day 7 AM): −72%
- Uric acid levels after a single oral dose (24 hours after single dose of 50 mg or 150 mg (Day 1), men and women): Decreased
- Reductions from baseline in uric acid (by the morning of Day 4, male and female subjects, 50 mg TID or 150 mg BID): > 50%
